Data as given in patent publication US8192962B2, “Processes for detecting toxic substances” (Daikin Industries, Ltd., priority 2001, dated 2012).

System: DNA repair protein genes
Assay: DNA chip mRNA expression in yeast, DNA repair protein genes (Table 3)
Assay type: cell-based, Saccharomyces cerevisiae S288C
Conditions: incubated two hours, concentrations as in the 1st table
Procedure: Yeast (Saccharomyces cerevisiae S288C (α SUC2mal mel gap2 CUP1)) were incubated at 25° C. on YPD medium (yeast extract 1%, polypepton 2%, glucose 2%). One of toxic chemical substances was added to the cells at logarithmic growth phase, and the cells were further incubated for two hours. Cells were cultured without any chemical substance in the same condition, and were used as control. Concentrations of the chemical substances were defined to inhibit the growth of the yeast but not lead to death.
After completion of the incubation, the culture was centrifuged to collect the cells. To the cells, sodium acetate buffer (50 mM sodium acetate, 10 mM EDTA, 1% SDS) was added, and the mixture was shaken at 65° C. for five minutes, followed by returning to room temperature, and obtaining the supernatant, of which the procedures were repeated two times. To the supernatant, ½ amount of a solution of phenol/chloroform was added, and the mixture was centrifuged to give a supernatant, which was added with an equal amount of chloroform, and the mixture was centrifuged to give a supernatant. To the supernatant, an equal amount of isopropanol containing 0.3 M sodium acetate was added, and the mixture was allowed to stand at room temperature for 30 minutes, after which the mixture was centrifuged to give a sediment of the whole RNAs. Seventy % ethanol was added to the sediment, and the mixture was again centrifuged to give a sediment, which was then dried and dissolved in water. mRNA was isolated from the whole RNAs as followings. In view of the fact that a poly A chain is attached to the 3′ terminus of mRNA, a polynucleotide having a poly T structure which was immobilized on the surface of latex beads was used to trap the mRNA, and then the mRNA was washed and eluted with spine column (Oligotex-dT30<Super>mRNA Purification Kit, Takara). Reverse transcription of the mRNA was conducted with a reverse transcriptase (Super Script II Reverse Transcriptase; catalogue No. 18064-014, GibcoBRL) using fluorescence-labeled nucleotides to give cDNAs that were introduced with Cy3-dUTP or Cy5-dUTP during the reverse transcription.
The labeled cDNAs were dissolved in TE buffer (10mM Tris-HCl/1 mM EDTA, pH8.0), and the solution was dropped on the DNA chip containing the whole genes of yeast (DNA Chip Research Inc. Japan) so that the cDNAs were hybridized on the DNA chip at 65° C. for over 12 hours. The fluoresces intensity of the DNA chip was read with a scanner, and the ratio relative to the fluorescence intensity resulting from the absence of chemical substance was estimated as the following, which is shown in Tables 1 to 9: […]

[Cl][Cd][Cl] [(2), CdCl2]
The level of expressed mRNA in the presence of chemical substance/The level of expressed mRNA in the absence of chemical substance (yeast gene YAL015C): 1.1
The level of expressed mRNA in the presence of chemical substance/The level of expressed mRNA in the absence of chemical substance (yeast gene YAR007C): 1.9
The level of expressed mRNA in the presence of chemical substance/The level of expressed mRNA in the absence of chemical substance (yeast gene YBL019W): 9.1
The level of expressed mRNA in the presence of chemical substance/The level of expressed mRNA in the absence of chemical substance (yeast gene YBR073W): 1.0
The level of expressed mRNA in the presence of chemical substance/The level of expressed mRNA in the absence of chemical substance (yeast gene YBR272C): 1.8
The level of expressed mRNA in the presence of chemical substance/The level of expressed mRNA in the absence of chemical substance (yeast gene YCR014C): 1.0
The level of expressed mRNA in the presence of chemical substance/The level of expressed mRNA in the absence of chemical substance (yeast gene YDL017W): 2.3
The level of expressed mRNA in the presence of chemical substance/The level of expressed mRNA in the absence of chemical substance (yeast gene YDL059C): 5.1
The level of expressed mRNA in the presence of chemical substance/The level of expressed mRNA in the absence of chemical substance (yeast gene YDL200C): 2.0
The level of expressed mRNA in the presence of chemical substance/The level of expressed mRNA in the absence of chemical substance (yeast gene YDR054C): 1.0
The level of expressed mRNA in the presence of chemical substance/The level of expressed mRNA in the absence of chemical substance (yeast gene YDR369C): 1.1
The level of expressed mRNA in the presence of chemical substance/The level of expressed mRNA in the absence of chemical substance (yeast gene YEL019C): 1.6
The level of expressed mRNA in the presence of chemical substance/The level of expressed mRNA in the absence of chemical substance (yeast gene YEL037C): 2.0
The level of expressed mRNA in the presence of chemical substance/The level of expressed mRNA in the absence of chemical substance (yeast gene YER162C): 1.2
The level of expressed mRNA in the presence of chemical substance/The level of expressed mRNA in the absence of chemical substance (yeast gene YFL014W): 5.1
The level of expressed mRNA in the presence of chemical substance/The level of expressed mRNA in the absence of chemical substance (yeast gene YGL058W): 1.1
The level of expressed mRNA in the presence of chemical substance/The level of expressed mRNA in the absence of chemical substance (yeast gene YGL091C): 1.8
The level of expressed mRNA in the presence of chemical substance/The level of expressed mRNA in the absence of chemical substance (yeast gene YGL127C): 1.9
The level of expressed mRNA in the presence of chemical substance/The level of expressed mRNA in the absence of chemical substance (yeast gene YGL163C): 0.8
The level of expressed mRNA in the presence of chemical substance/The level of expressed mRNA in the absence of chemical substance (yeast gene YGL249W): 0.8
The level of expressed mRNA in the presence of chemical substance/The level of expressed mRNA in the absence of chemical substance (yeast gene YGR180C): 1.1
The level of expressed mRNA in the presence of chemical substance/The level of expressed mRNA in the absence of chemical substance (yeast gene YGR231C): 1.2
The level of expressed mRNA in the presence of chemical substance/The level of expressed mRNA in the absence of chemical substance (yeast gene YGR258C): 0.9
The level of expressed mRNA in the presence of chemical substance/The level of expressed mRNA in the absence of chemical substance (yeast gene YHR164C): 1.3
The level of expressed mRNA in the presence of chemical substance/The level of expressed mRNA in the absence of chemical substance (yeast gene YIL036W): 1.3
The level of expressed mRNA in the presence of chemical substance/The level of expressed mRNA in the absence of chemical substance (yeast gene YIL072W): 3.1
The level of expressed mRNA in the presence of chemical substance/The level of expressed mRNA in the absence of chemical substance (yeast gene YIL143C): 0.8
The level of expressed mRNA in the presence of chemical substance/The level of expressed mRNA in the absence of chemical substance (yeast gene YIL153W): 1.4
The level of expressed mRNA in the presence of chemical substance/The level of expressed mRNA in the absence of chemical substance (yeast gene YIR002C): 1.1
The level of expressed mRNA in the presence of chemical substance/The level of expressed mRNA in the absence of chemical substance (yeast gene YJL026W): 2.4
The level of expressed mRNA in the presence of chemical substance/The level of expressed mRNA in the absence of chemical substance (yeast gene YJR046W): 1.2
The level of expressed mRNA in the presence of chemical substance/The level of expressed mRNA in the absence of chemical substance (yeast gene YJR052W): 1.0
The level of expressed mRNA in the presence of chemical substance/The level of expressed mRNA in the absence of chemical substance (yeast gene YKL145W): 1.4
The level of expressed mRNA in the presence of chemical substance/The level of expressed mRNA in the absence of chemical substance (yeast gene YLR103C): 1.5
The level of expressed mRNA in the presence of chemical substance/The level of expressed mRNA in the absence of chemical substance (yeast gene YLR233C): 0.9
The level of expressed mRNA in the presence of chemical substance/The level of expressed mRNA in the absence of chemical substance (yeast gene YLR288C): 0.8
The level of expressed mRNA in the presence of chemical substance/The level of expressed mRNA in the absence of chemical substance (yeast gene YML032C): 0.9
The level of expressed mRNA in the presence of chemical substance/The level of expressed mRNA in the absence of chemical substance (yeast gene YML058W): 1.2
The level of expressed mRNA in the presence of chemical substance/The level of expressed mRNA in the absence of chemical substance (yeast gene YMR035W): 1.7
The level of expressed mRNA in the presence of chemical substance/The level of expressed mRNA in the absence of chemical substance (yeast gene YMR072W): 1.0
The level of expressed mRNA in the presence of chemical substance/The level of expressed mRNA in the absence of chemical substance (yeast gene YMR096W): 1.7
The level of expressed mRNA in the presence of chemical substance/The level of expressed mRNA in the absence of chemical substance (yeast gene YMR284W): 1.0
The level of expressed mRNA in the presence of chemical substance/The level of expressed mRNA in the absence of chemical substance (yeast gene YNL213C): 11.6
The level of expressed mRNA in the presence of chemical substance/The level of expressed mRNA in the absence of chemical substance (yeast gene YNL250W): 2.2
The level of expressed mRNA in the presence of chemical substance/The level of expressed mRNA in the absence of chemical substance (yeast gene YNL261W): 1.3
The level of expressed mRNA in the presence of chemical substance/The level of expressed mRNA in the absence of chemical substance (yeast gene YNL312W): 1.0
The level of expressed mRNA in the presence of chemical substance/The level of expressed mRNA in the absence of chemical substance (yeast gene YOL043C): 0.9
The level of expressed mRNA in the presence of chemical substance/The level of expressed mRNA in the absence of chemical substance (yeast gene YOR005C): 1.8
The level of expressed mRNA in the presence of chemical substance/The level of expressed mRNA in the absence of chemical substance (yeast gene YOR386W): 0.8
The level of expressed mRNA in the presence of chemical substance/The level of expressed mRNA in the absence of chemical substance (yeast gene YPL022W): 0.8
The level of expressed mRNA in the presence of chemical substance/The level of expressed mRNA in the absence of chemical substance (yeast gene YPL164C): 0.7
The level of expressed mRNA in the presence of chemical substance/The level of expressed mRNA in the absence of chemical substance (yeast gene YPL194W): 1.4
The level of expressed mRNA in the presence of chemical substance/The level of expressed mRNA in the absence of chemical substance (yeast gene YPR025C): 0.8

CCCCC[C@H](O)CC(=O)CCc1ccc(O)c(OC)c1 [(13), gingerol]
The level of expressed mRNA in the presence of chemical substance/The level of expressed mRNA in the absence of chemical substance (yeast gene YDL200C): 1.1
The level of expressed mRNA in the presence of chemical substance/The level of expressed mRNA in the absence of chemical substance (yeast gene YEL019C): 1.0
The level of expressed mRNA in the presence of chemical substance/The level of expressed mRNA in the absence of chemical substance (yeast gene YGL058W): 1.0
The level of expressed mRNA in the presence of chemical substance/The level of expressed mRNA in the absence of chemical substance (yeast gene YIL072W): 1.4
The level of expressed mRNA in the presence of chemical substance/The level of expressed mRNA in the absence of chemical substance (yeast gene YLR233C): 1.0
The level of expressed mRNA in the presence of chemical substance/The level of expressed mRNA in the absence of chemical substance (yeast gene YLR288C): 0.7
The level of expressed mRNA in the presence of chemical substance/The level of expressed mRNA in the absence of chemical substance (yeast gene YMR284W): 1.0
The level of expressed mRNA in the presence of chemical substance/The level of expressed mRNA in the absence of chemical substance (yeast gene YNL312W): 0.7
The level of expressed mRNA in the presence of chemical substance/The level of expressed mRNA in the absence of chemical substance (yeast gene YPL164C): 1.0
The level of expressed mRNA in the presence of chemical substance/The level of expressed mRNA in the absence of chemical substance (yeast gene YPR025C): 1.1
